# Calls of active or inactive are those of the source. The rule behind the calls is not given here.
# Key:
# [1] = Cytotoxicity against mouse J774A1 cells by MTT assay; type: cell-based; conditions: j774.a1
# [2] = Antiinflammatory activity in mouse J774A1 cells assessed as inhibition of LPS-stimulated NO production pretreated for 2 hrs followed by LPS addition measured after 18 hrs post LPS challenge by spectrophotometry; type: functional, cell-based; conditions: J774.A1
# J774.A1 = assay: Antiinflammatory activity in mouse J774A1 cells assessed as inhibition of LPS-stimulated NO production pretreated at 10 uM for 2 hrs followed by LPS addition measured after 18 hrs post LPS challenge by spectrophotometry; type: functional, cell-based
Compound,Activity [1],IC50 [2] [µM],other results
CO[C@@H]1CC(=O)C2=CCCC3(Oc4cccc5cccc(c45)O3)[C@@H]2[C@@H]1O,Toxic,,
O=C1C[C@H](O)[C@@H](O)[C@@H]2C1=CCCC21Oc2cccc3cccc(c23)O1,,0.31,
OC1C=CC(O)C2C1C(O)CCC21Oc2cccc3cccc(c23)O1 (stereo not given),,,inhibition (J774.A1): inactive
O=C1C[C@@H](O)[C@@H](O)[C@@H]2C1=CCCC21Oc2cccc3cccc(c23)O1,,3.6,
O=C1C=C[C@@H](O)[C@@H]2C1=CCCC21Oc2cccc3cccc(c23)O1,Toxic,,
